# Tested on: men and women with overactive bladder
# Assay: Phase 3 study of vibegron 75 mg vs placebo and tolterodine ER 4 mg, 12 weeks, efficacy (voiding and urine volume diary)
# Assay type: in vivo, human
# Conditions: for Patients with at Least 75% Reduction in Total Incontinence, Adjusted (%) / Patients with at Least 75% Reduction in Total Incontinence, Adjusted n / Patients with at Least 75% Reduction in Total Incontinence, Unadjusted (%) / Patients with at Least 75% Reduction in Total Incontinence, Unadjusted n / Total Incontinence 75% responders, Active - Placebo CMH Difference: FAS-I
# Procedure: Enrollment of patients included individuals with OAB Wet (those with UUI, the involuntary loss of urine accompanied by urgency) and OAB Dry (those without UUI). A total of 1,518 patients were randomized across 215 study sites into one of three groups for a 12-week treatment period.
# The study consisted of a Screening Period (1 to 5 weeks), a single-blind Run-in Period (2 weeks), a randomized double-blind Treatment Period (12 weeks), and a Follow-up Period (4 weeks).
# Tolterodine ER 4 mg was the active control. […] Between the Baseline and Week 12 Visits, patients had study assessments at Week 4 and Week 8.
# The Patient Voiding Diary was used by participants (via the eDiary or paper Diary) to record the frequency of daily OAB symptoms including all micturitions, urgency, incontinence, and main reason for incontinence by selecting the respective box for each symptom occurring during the course of a given day and night.
# Urine volume data were collected separately by patients using the Urine Volume component of the eDiary, or the paper Urine Volume Chart. The Urine Volume Chart is a tool used in clinical practice and clinical investigation to assess voiding functions over a 24-hour period and is regarded as a useful instrument in the investigation of patients with voiding symptoms. Urine volume may be collected during any one (1) of the 7 Diary Days prior to the visit, and it should be recorded for ˜24 hours starting from the time the patient gets up for the day and continues until the time the patient gets up for the day on the next day.
# For the purpose of this study, the number of micturitions was defined as the number of times a patient has voided in the toilet as indicated on the Patient Voiding Diary. Average daily micturitions were calculated using the daily entries in the Patient Voiding Diary, which was completed over the 7 days prior to each study visit. Average daily number of micturitions were calculated as the total number of micturitions that occurred on a Complete Diary Day divided by the number of Complete Diary Days in the Patient Voiding Diary. A complete diary day required confirmation by the patient in the Patient Voiding Diary that all voids and leakages had been recorded for the diary day. Baseline was defined as the average number of micturitions occurring during the last evaluable diary prior to the Baseline Visit.
# The number of UUI episodes was defined as the number of times a patient had checked “urge” as the reason for accidental urine leakage. Average daily UUI episodes at each study visit were calculated in the same manner as described above for the micturition endpoint. The UUI endpoint were analyzed using only OAB Wet patients.
# For the analysis of the co-primary endpoints (change from baseline in average number of daily micturitions at Week 12 and change from baseline in average number of daily urge urinary incontinence episodes at Week 12, and placebo adjustment of each), a mixed model for repeated measure (MMRM) with restricted maximum likelihood estimation was used. This model corrects for dropout and accounts for the fact that measurements taken on the same patient over time tend to be correlated by using all available information on patients within the same covariate set to derive an estimate of the treatment effect for a dropout-free population. The analysis model for each efficacy endpoint includes terms for treatment, visit, OAB Type (Wet vs Dry), Sex (Female vs Male), Region (US vs Rest of World), baseline score, and interaction of visit by treatment.
# Primary inferences were drawn from treatment differences for the changes from baseline derived from the MMRM models at Week 12. As part of secondary objectives, the treatment differences for each post baseline visit were also derived using the same MMRM model. […]
# [1] = subjects with prior ACH use, vibegron 75 mg, Week 12
# [2] = vibegron 75 mg or tolterodine ER 4 mg
# [3] = vibegron 75 mg or tolterodine ER 4 mg once daily
# [4] = vibegron 75 mg or tolterodine ER 4 mg once daily, OAB Wet
# [5] = vibegron 75 mg or tolterodine ER 4 mg, OAB Wet
compound,measurement,setting,value
"O=C(Nc1ccc(C[C@@H]2CC[C@H]([C@H](O)c3ccccc3)N2)cc1)[C@@H]1CCc2nccc(=O)n21 [Vibegron, (6S)-N-[4-[[(2S,5R)−5-[(R)-hydroxy(phenyl)methyl]pyrrolidin−2-yl]methyl]phenyl]−4-oxo−7,8-dihydro−6H-pyrrolo[1,2-a]pyrimidine−6-carboxamide]","UUI Episodes, change at Week 12, mean (SD)","Week 12, subpopulation Age ≥65 years",−1.94 (2.50)
same,"Daily Urgency, change at Week 12","Week 12, subpopulation Age ≥65 years, posthoc analysis",−2.7
same,Micturitions: Week 12 CFB Mean (descriptive statistics),"Week 12, ≥65 yrs",−2.10
same,"Patients with at Least 75% Reduction in Total Incontinence, Adjusted (%)",baseline to Week 2,22.1%
same,"Patients with at Least 75% Reduction in Total Incontinence, Adjusted n",baseline to Week 2,89
same,"Patients with at Least 75% Reduction in Total Incontinence, Unadjusted (%)",baseline to Week 2,23.6%
same,"Patients with at Least 75% Reduction in Total Incontinence, Unadjusted n",baseline to Week 2,95
same,"Total Incontinence 75% responders, Active - Placebo CMH Difference",baseline to Week 2,9.3
same,"Patients with at Least 75% Reduction in Total Incontinence, Adjusted (%)",baseline to Week 4,31.5%
same,"Patients with at Least 75% Reduction in Total Incontinence, Adjusted n",baseline to Week 4,127
same,"Patients with at Least 75% Reduction in Total Incontinence, Unadjusted (%)",baseline to Week 4,34.5%
same,"Patients with at Least 75% Reduction in Total Incontinence, Unadjusted n",baseline to Week 4,139
same,"Total Incontinence 75% responders, Active - Placebo CMH Difference",baseline to Week 4,11.8
same,"Patients with at Least 75% Reduction in Total Incontinence, Adjusted (%)",baseline to Week 8,42.0%
same,"Patients with at Least 75% Reduction in Total Incontinence, Adjusted n",baseline to Week 8,169
same,"Patients with at Least 75% Reduction in Total Incontinence, Unadjusted (%)",baseline to Week 8,43.7%
same,"Patients with at Least 75% Reduction in Total Incontinence, Unadjusted n",baseline to Week 8,176
same,"Total Incontinence 75% responders, Active - Placebo CMH Difference",baseline to Week 8,14.7
same,"Patients with at Least 75% Reduction in Total Incontinence, Adjusted (%)",baseline to Week 12,47.3%
same,"Patients with at Least 75% Reduction in Total Incontinence, Adjusted n",baseline to Week 12,191
same,"Patients with at Least 75% Reduction in Total Incontinence, Unadjusted (%)",baseline to Week 12,50.1%
same,"Patients with at Least 75% Reduction in Total Incontinence, Unadjusted n",baseline to Week 12,202
same,"Total Incontinence 75% responders, Active - Placebo CMH Difference",baseline to Week 12,15.8
same,"UUI, Week 12 LS mean change from baseline (placebo adjusted) (95% CI)","subgroup Age <65 years, vibegron 75 mg or tolterodine ER 4 mg",−0.5 (−0.9 to −0.1)
same,"UUI, Week 12 LS mean change from baseline (placebo adjusted) (95% CI)","subgroup Age ≥65 years, vibegron 75 mg or tolterodine ER 4 mg",−0.8 (−1.2 to −0.3)
same,"UUI, Week 12 LS mean change from baseline (placebo adjusted) (95% CI)","subgroup Age ≥75 years (posthoc analysis), vibegron 75 mg or tolterodine ER 4 mg",−1.6 (−2.4 to −0.8)
same,"UUI, Week 12 LS mean change from baseline (placebo adjusted) (95% CI)","subgroup Females, vibegron 75 mg or tolterodine ER 4 mg",−0.7 (−1.0 to −0.4)
same,"UUI, Week 12 LS mean change from baseline (placebo adjusted) (95% CI)","subgroup Males, vibegron 75 mg or tolterodine ER 4 mg",−0.1 (−0.9 to 0.8)
same,"UUI, Week 12 LS mean change from baseline (placebo adjusted) (95% CI)","subgroup Non-White, vibegron 75 mg or tolterodine ER 4 mg",0.0 (−0.6 to 0.7)
same,"UUI, Week 12 LS mean change from baseline (placebo adjusted) (95% CI)","subgroup Region: Non-US, vibegron 75 mg or tolterodine ER 4 mg",−1.1 (−1.8 to −0.3)
same,"UUI, Week 12 LS mean change from baseline (placebo adjusted) (95% CI)","subgroup Region: US, vibegron 75 mg or tolterodine ER 4 mg",−0.5 (−0.8 to −0.2)
same,"UUI, Week 12 LS mean change from baseline (placebo adjusted) (95% CI)","subgroup White, vibegron 75 mg or tolterodine ER 4 mg",−0.8 (−1.1 to −0.4)
same,"decrease in average number of UUI episodes in 24 hours, times the decrease with placebo",[1],about 1.75 times
same,"decrease in average number of micturitions in 24 hours, more than the decrease with placebo",[1],about 0.7
same,"decrease in average number of micturitions in 24 hours, more than the decrease with placebo","subjects with prior B3 use, vibegron 75 mg, Week 12",about 2.9
same,"total daily incontinence, placebo adjusted, week 2",vibegron 75 mg,−0.7
same,"average volume voided, placebo-adjusted mean change from baseline, week 12",[2],21.2 mL
same,"placebo-adjusted mean total daily incontinence episodes, week 12",[2],−0.7 episodes
same,"proportion of patients (UUI responders) with 75% or more reduction in daily UUI episodes, week 12",[2],49.3%
same,"Micturitions, active-placebo LS mean difference, Week 2",[3],−0.5
same,"Micturitions, active-placebo LS mean difference, Week 4",[3],−0.6
same,"Micturitions, active-placebo LS mean difference, Week 8",[3],−0.6
same,"Micturitions, active-placebo LS mean difference, Week 12",[3],−0.5
same,"Micturitions, average daily number, Week 2 mean",[3],10.18
same,"Micturitions, average daily number, Week 4 mean",[3],9.84
same,"Micturitions, average daily number, Week 8 mean",[3],9.53
same,"Micturitions, average daily number, Week 12 mean",[3],9.32
same,"Micturitions, change from baseline LS mean, Week 2",[3],−0.8
same,"Micturitions, change from baseline LS mean, Week 4",[3],−1.1
same,"Micturitions, change from baseline LS mean, Week 8",[3],−1.4
same,"Micturitions, change from baseline LS mean, Week 12",[3],−1.8
same,"UUI episodes, active-placebo LS mean difference, Week 2",[4],−0.6
same,"UUI episodes, active-placebo LS mean difference, Week 4",[4],−0.7
same,"UUI episodes, active-placebo LS mean difference, Week 8",[4],−0.6
same,"UUI episodes, average daily number, Week 2 mean",[4],2.03
same,"UUI episodes, average daily number, Week 4 mean",[4],1.77
same,"UUI episodes, average daily number, Week 8 mean",[4],1.65
same,"UUI episodes, average daily number, Week 12 mean",[4],1.46
same,"UUI episodes, change from baseline LS mean, Week 2",[4],−1.4
same,"UUI episodes, change from baseline LS mean, Week 4",[4],−1.7
same,"UUI episodes, change from baseline LS mean, Week 8",[4],−1.8
same,"UUI episodes, change from baseline LS mean, Week 12",[4],−2.0
same,"Estimated incidence of subjects with 75% decrease from baseline in UUI episodes, Week 2",[5],24.3
same,"Estimated incidence of subjects with 75% decrease from baseline in UUI episodes, Week 4",[5],26.6
same,"Estimated incidence of subjects with 75% decrease from baseline in UUI episodes, Week 8",[5],41.3
same,"Estimated incidence of subjects with 75% decrease from baseline in UUI episodes, Week 12",[5],52.7
same,"First 75% reduction in UUI episodes, Events/Censored, Week 2",[5],98/305
same,"First 75% reduction in UUI episodes, Events/Censored, Week 4",[5],107/296
same,"First 75% reduction in UUI episodes, Events/Censored, Week 8",[5],166/237
same,"First 75% reduction in UUI episodes, Events/Censored, Week 12",[5],210/193
same,"Overall time to first 75% decrease in UUI episodes, 25th percentile",[5],3.9 weeks
same,"Overall time to first 75% decrease in UUI episodes, 75th percentile",[5],13.1 weeks
same,"Overall time to first 75% decrease in UUI episodes, median (95% CI)",[5],8.4 (8.1 to 12.1) weeks
same,"Time to first 75% decrease in UUI episodes, Events/Censored (overall)",[5],239/164
same,"total daily incontinence, mean change from baseline (reduction)","vibegron 75 mg, after 12 weeks",2.3 episodes
same,"statistically significant onset of action, reduction in urge urinary incontinence (UUI)","vibegron 75 mg/day, FIG. 4",2 weeks
same,"statistically significant onset of action, reduction in micturitions","vibegron 75 mg/day, FIG. 5",2 weeks
same,"statistically significant onset of action, reduction in urgency episodes","vibegron 75 mg/day, FIG. 6",2 weeks
same,"statistically significant onset of action, urge incontinence responder rate","vibegron 75 mg/day, FIG. 7",2 weeks
same,"statistically significant onset of action, reductions in total incontinence episodes","vibegron 75 mg/day, FIG. 9",2 weeks
same,"statistically significant onset of action, improvement in volume voided","vibegron 75 mg/day, FIG. 10",2 weeks

# — patent publication US20230027066A1 (Urovant Sciences GmbH, priority 2019, published 2023)
